# Laboratory results taken from patent publication US20140335050A1, “METHODS, COMPOSITIONS, AND KITS FOR THE TREATMENT OF CANCER” (The General Hospital Corporation, priority 2011, published 2014).
# Experiments:
# Type in all cases: cell-based, human
# U2-OS osteosarcoma cells = assay: Surface antibody staining and flow cytometry (MHC Class I/II)
# Procedure, shortened: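 Cells pre-treated 4 days with IFN-beta, then re-plated for 3-day treatments. Harvested non-enzymatically and stained on ice for 30 min with W6/32 (Class I) or L243 (Class II), then FITC goat anti-mouse secondary; surface levels quantified by flow cytometry.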
# MU89 cell line = assay: Western blot (BRAF, Melan-A/MART-1, TRP-2, phosphorylated MEK and ERK)
# Experimental: A. Western blot performed on extracts of the MU89 cell line treated as indicated for three days. Extracts were probed with antibodies to BRAF, Melan-A/MART-1, TRP-2, or beta-Actin. 30 μg of total protein was loaded in each lane of the gel. […] B. Protein gel electrophoresis was performed using 30 μg of total protein extracts prepared from the indicated cell lines. Cells were untreated (control) or treated with 0.15 μg/ml of BIIB021 for three days. After transfer Western blots were probed with antibodies to phosphorylated MEK (p-MEK) or β-Actin.
# FIG. 17 is a series of Western blots that show changes in protein levels and state of phosphorylation after treatment with an Hsp90 inhibitor. A primary Anti BRAF (H145) antibody was used at a 1:5000 dilution. A secondary Goat anti rabbit antibody was used at a dilution of 1:5000. […]
# To address the effect of Hsp90 inhibition on the MAP kinase pathway, protein levels and signaling activity (protein phosphorylation levels) of the proteins in this pathway were analyzed directly. […]
# Cell lysates were prepared using RIPA buffer from Santa Cruz (Santa Cruz, Calif.) containing protease and phosphatase inhibitors. Protein concentrations were determined using Bradford assay from BioRad (Hercules, Calif.). […] Sizes of proteins were determined by comparison to the Broad prestained protein standard ladder from BioRad (Hercules, Calif.).
# A375 tumor cells = assay: Western blot (BRAF, phosphorylated MEK and ERK)
# Experimental: FIG. 17 is a series of Western blots that show changes in protein levels and state of phosphorylation after treatment with an Hsp90 inhibitor. A primary Anti BRAF (H145) antibody was used at a 1:5000 dilution. A secondary Goat anti rabbit antibody was used at a dilution of 1:5000. 30 ug total protein was added to each well.
# Cell lysates were prepared using RIPA buffer from Santa Cruz (Santa Cruz, Calif.) containing protease and phosphatase inhibitors. Protein concentrations were determined using Bradford assay from BioRad (Hercules, Calif.). Equal amounts of protein were loaded in each well for PAGE analysis. Proteins were transferred to PVDF membranes from Pierce Biotechnology (Rockford, Ill.). Blocking and both primary and secondary antibody incubations were performed using Starting Block from Pierce (Rockford, Ill.). Blots were washed with 1×TBS with 0.5% tween 20. Primary antibodies used BRAF H-145 and TRP-2 from Santa Cruz (Santa Cruz, Calif.), and Phos ERK from Cell Signaling Technologies (Danvers, Mass.) beta actin from Sigma (St. Louis, Mo.). Goat anti-rabbit HRP conjugated secondary antibody was purchased from Pierce (Rockford, Ill.). Chemiluminesce was performed using the Femto kit form Pierce (Rockford, Ill.). […] Sizes of proteins were determined by comparison to the Broad prestained protein standard ladder from BioRad (Hercules, Calif.).
# 453A melanoma cell line = assay: Intracellular antibody staining and flow cytometry (Melan-A/MART-1, gp100/HMB45); conditions: 453A (BRAF M/WT, NRAS WT); 3 days; 17-AEP 1.00, CCT018159 10.00, PU-H71 0.30 μg/ml
# Experimental: (§1) Cells were fixed with 1% formaldehyde, permeabilized with 0.1% saponin, stained with monoclonal antibodies to melanocyte antigens. Antibodies were obtained with specificity for: MART-1 from Vector Labs (Burlingame, Calif.); gp100 HMB45 from DakoCytomation (Carpinteria, Calif.) and then visualized with goat anti-mouse FITC-conjugated secondary antibody from Invitrogen (Fredrick, Md.). The level of EGFP was determined by flow cytometry of unfixed cells that were washed and resuspended in 1×PBS.
# Cells were plated at a density of 1×10^5 in 1 ml of medium in a 24-well plate and cultured for varying times as indicated in results. […] After incubation, cells were collected by trypsinization and then evaluated by flow cytometry.
# as §1, with “Intracellular staining and flow cytometric analyses of cytoplasmic Melan-A/MART-1, and gp100 expression were performed as described previously. Cells” for “Cells”, “Melan-A/MART-1” for “MART-1”, “gp100/HMB45” for “gp100 HMB45”, “(Frederick,” for “(Fredrick,”, “cells” for “cells that were”, “1×PBS. […]” for “1×PBS.”
# MM455 melanoma cell line = assay: Intracellular antibody staining and flow cytometry (gp100/HMB45); conditions: MM455 (BRAF M/WT, NRAS WT); 3 days; 17-AEP 0.50, CCT018159 2.50, PU-H71 0.25 μg/ml
# Experimental: (§2) Several cell lines expressing varying native-sequences, (wild-type (WT) or mutant (M) alleles of these genes were evaluated), to determine if there is a relationship between levels of Hsp90 inhibitor-mediated antigen up-regulation and BRAF and NRAS mutational status. Mutant status of the NRAS and BRAF loci were determined previously.
# (§3) Cells were plated at a density of 1×10^5 in 1 ml of medium in a 24-well plate and cultured for varying times as indicated in results. Typically, 3 days of culture in the presence of Hsp90 inhibitors was optimal for the functional studies performed. After incubation, cells were collected by trypsinization and then evaluated by flow cytometry.
# as §1, with “Intracellular staining and flow cytometric analyses of cytoplasmic Melan-A/MART-1, and gp100 expression were performed as described previously. Cells” for “Cells”, “Melan-A/MART-1” for “MART-1”, “gp100/HMB45” for “gp100 HMB45”, “(Frederick,” for “(Fredrick,”, “cells” for “cells that were”, “1×PBS. […]” for “1×PBS.”
# Roth melanoma cell line = assay: as above; conditions: Roth (BRAF WT, NRAS M/M); 3 days; 17-AEP 0.50, CCT018159 2.50, PU-H71 0.25 μg/ml
# Experimental: as §2, §3
# as §1, with “Intracellular staining and flow cytometric analyses of cytoplasmic Melan-A/MART-1, and gp100 expression were performed as described previously. Cells” for “Cells”, “Melan-A/MART-1” for “MART-1”, “gp100/HMB45” for “gp100 HMB45”, “(Frederick,” for “(Fredrick,”, “cells” for “cells that were”, “1×PBS. […]” for “1×PBS.”
# [1] = U2-OS cells, Table 20, single agent or simultaneous combination
# [2] = U2-OS, three days, IFN-β 5000 Units/ml, IFN-γ 100 ng/ml, PU-H71 0.3 mg/ml
structure (smiles),measurement,setting,value
CC(C)NCCCn1c(Sc2cc3c(cc2I)OCO3)nc2c(N)ncnc21 [PU-H71],L243 (MHC Class II surface staining),U2-OS osteosarcoma cells; [1],1.9
same,W6/32 (MHC Class I surface staining),U2-OS osteosarcoma cells; [1],109.0
same,"Class I induction, combination","U2-OS osteosarcoma cells; U2-OS, PU-H71 in combination with interferons",highest levels are achieved
same,"Class II antigen induction seen with IFN-gamma, combination","U2-OS osteosarcoma cells; U2-OS, PU-H71 together with IFN-gamma",prevented
same,L243 (MHC Class II surface staining),"U2-OS osteosarcoma cells; U2-OS, single agent",1.8
same,"MHC Class I, geometric mean of surface staining (W6/32)",U2-OS osteosarcoma cells; [2],87
same,"MHC Class II, geometric mean of surface staining (L2443)",U2-OS osteosarcoma cells; [2],4
same,"MHC Class I, geometric mean of surface staining (W6/32)","U2-OS osteosarcoma cells; U2-OS, three days, IFN-β 5000 Units/ml, PU-H71 0.075-0.3 mg/ml",108
CO[C@H]1/C=C\C=C(/C)C(=O)NC2=CC(=O)C(NCCN3CCCC3)=C(C[C@@H](C)C[C@H](OC)[C@H](O)[C@@H](C)/C=C(\C)[C@@H]1OC(N)=O)C2=O [17-AEP],BRAF protein level (Western blot),MU89 cell line; 3 days,reduces levels of BRAF
same,Phosphorylated MEK and Phosphorylated ERK levels (Western blot),MU89 cell line; 3 days (FIG. 17),decreased levels
same,BRAF protein level (Western blot),A375 tumor cells; 3 days,reduces levels of BRAF
same,Phosphorylated MEK and Phosphorylated ERK levels (Western blot),A375 tumor cells; 3 days (FIG. 17),decreased levels
CCc1cc(-c2n[nH]c(C)c2-c2ccc3c(c2)OCCO3)c(O)cc1O [CCT018159],"HMB45, level of induction relative to untreated control cells",453A melanoma cell line,3.38
same,"MART-1, level of induction relative to untreated control cells",453A melanoma cell line,3.29
same,"HMB45, level of induction relative to untreated control cells",MM455 melanoma cell line,1.16
same,"HMB45, level of induction relative to untreated control cells",Roth melanoma cell line,1.95
